Results on 18 compounds are retold here after paper PMC6271834, “Antiprotozoal Activity of (E)-Cinnamic N-Acylhydrazone Derivatives” (Molecules, 2014).

In assay [1] the test system is Trypanosoma brucei rhodesiense (STIB900). In words: Trypanocidal activity, bloodstream forms, Alamar Blue. It is filed as cell-based. As to conditions: read-out: T.b. rhod. IC50. How it is done: Minimum essential medium (50 μL) supplemented according to a known procedure with 2-mercaptoethanol and 15% heat-inactivated horse serum was added to each well of a 96-well microtiter plate. Serial drug dilutions were prepared covering a range from 90 to 0.123 μg/mL. Then 10^4 bloodstream forms of T. b. rhodesiense STIB 900 in 50 μL were added to each well and the plate incubated at 37 °C under a 5% CO2 atmosphere for 72 h. Ten microliters of Alamar Blue (containing 12.5 mg resazurin dissolved in […] distilled water) were then added to each well and incubation continued for a further 2–4 h. The Alamar Blue dye is an indicator of cellular growth and/or viability. The blue, non-fluorescent, oxidized form becomes pink and fluorescent upon reduction by living cells. The plate was then read in a Spectramax Gemini XS microplate fluorometer (Molecular Devices Cooperation, Sunnyvale, CA, USA) using an excitation wavelength of 536 nm and emission wavelength of 588 nm. Fluorescence development was measured and expressed as percentage of the control. Data were transferred into the graphic programme Softmax Pro (Molecular Devices,) which calculated IC50 values. Melarsoprol was used as standard.

The test system of assay [2] is Leishmania donovani (MHOM/ET/67/L82) axenic amastigotes. In words: Leishmanicidal activity, axenic amastigotes, Alamar Blue. It is filed as cell-based. As to conditions: for SI (Selectivity Index for leishmanicidal activity): L-6 cells versus L. donovani; for IC50: Leishmania donovani, axenic amastigotes, strain MHOM/ET/67/L82, 72 h, means of two determinations, read-out: L. donovani IC50. How it is done:
Amastigotes of Leishmania donovani strain MHOM/ET/67/L82 were grown in axenic culture at 37 °C in SM medium at pH 5.4 supplemented with 10% heat-inactivated fetal bovine serum under an atmosphere of 5% CO2 in air. One hundred microliters of culture medium with 10^5 amastigotes from axenic culture with or without the compound to test were seeded in 96-well microtiter plates. […] Each drug was tested in duplicate and each assay was repeated at least once. After 72 h of incubation the plates were inspected under an inverted microscope to assure growth of the controls and sterile conditions. Ten microliters of Alamar Blue (12.5 mg resazurin dissolved in 100 mL phosphate buffered saline) were then added to each well and the plates incubated for another 2 h. Then the plates were read in a Spectramax Gemini XS microplate fluorometer (Molecular Devices Cooperation, Sunnyvale, CA, USA) using an excitation wave length of 536 nm and an emission wave length of 588 nm. Data were analyzed using the software Softmax Pro (Molecular Devices Cooperation, Sunnyvale, CA, USA). Decrease of fluorescence (=inhibition) was expressed as percentage of the fluorescence of control cultures. For the serial drug dilution assay inhibition values were plotted against the drug concentrations and IC50 values were calculated from the sigmoidal inhibition curves.
(Resazurin is reduced to fluorescent resorufin, in cell work by metabolically active cells.)

The test system of assay [3] is L-6 rat myoblast cells. In words: Cytotoxicity to L-6 cells, Alamar Blue. It is filed as cell-based. As to conditions: for IC50: read-out: Cytot. L-6 Cells IC50. How it is done:
Exactly 100 μL RPMI 1640 medium supplemented with 1% L-glutamine (200 mM) and 10% fetal bovine serum containing 4 × 10^4 L-6 cells (rat skeletal myoblasts) were added to each well of a 96-well microtiter plate. After 24 h, the medium was removed from all wells and replaced by 100 μL of fresh medium containing a 3-fold serial drug dilution covering a range from 200 μg/mL to 0.274 μg/mL, except for the control wells. After 72 h of incubation 10 μL of Alamar Blue (12.5 mg resazurin dissolved in 100 mL phosphate buffered saline) were added to each well and the plates were incubated for another 2 h. Then the plates were read with a Spectramax Gemini XS microplate fluorometer as described for the leishmanicidal assay. Podophyllotoxin was used as standard drug.

Assay [4] relates to Trypanosoma brucei rhodesiense (STIB900). In words: Trypanocidal activity, bloodstream forms, Alamar Blue. The assay is classed as cell-based. As to conditions: L-6 cells versus T. b. rhodesiense.
The test system of assay [5] is cruzipain. Set-up: method as in doi:10.1590/S0103-50532010000100021. As to conditions: cited from earlier work.
For assay [6], the system named is L. major cathepsin L-like cysteine protease. Set-up: method as in PMID 9371086. As to conditions: cited from earlier work.
Where [7] appears, read: bloodstream forms, STIB900, 72 h, means of two determinations.
[8] abbreviates: L6, L-6 rat skeletal myoblasts, 72 h, means of two determinations.
Where [9] appears, read: L-6 rat skeletal myoblasts, 72 h, means of two determinations.

Read-outs that look alike come from different tables or passages of the source. Where only a bound is given, the exact number is not on record here.

With `Nc1nc(N)nc(Nc2ccc([As]3SCC(CO)S3)cc2)n1` (centres unmarked) [MLSP, Melarsoprol, reference compound], in assay [1] (72 h), the IC50 (in general, the point on the concentration scale where inhibition reaches its midpoint) turned out to be 0.003 µM.
Take `COc1ccc(/C=N/NC(=O)/C=C/c2ccccc2)cc1OC` [Compound 14]: in assay [2], the “SI (Selectivity Index for leishmanicidal activity)” value is greater than 9.3. The values for the IC50 in assay [2], in assay [1] (setting [7]) and in assay [3] (setting [8]) were 31.2 µM, 67.6 µM and greater than 290 µM, respectively. The “SI (Selectivity Index for trypanocyde activity)” value in assay [4] is reported as greater than 4.3.
Regarding “(E)-1-(benzo[d][1,3]dioxol-5-yl)-3-(4-bromophenyl)prop-2-en-1-one [Compound 1]”, the IC50 in assay [5] was 20 µM.
For “(E)-3-hydroxy-N'-((2-hydroxynaphthalen-1-yl)methylene)-7-methoxy-2-naphthohydrazide [Compound 2]”, the IC50 in assay [6] was 0.5 µM.
As for `O=C(/C=C/c1ccccc1)N/N=C/c1ccc(F)cc1` [Compound 8], the “SI (Selectivity Index for leishmanicidal activity)” value in assay [2] was greater than 13.8. For the same compound, the IC50 in assay [2] is 24.3 µM; in assay [1] (setting [7]), 284 µM; in assay [3] (setting [8]), greater than 335 µM. Also, the “SI (Selectivity Index for trypanocyde activity)” value in assay [4] was greater than 1.2.
The corresponding values for `COc1cc(/C=N/NC(=O)/C=C/c2ccccc2)cc(OC)c1OC` [Compound 7] are 34.3, 3.5 µM, 49.3 µM, 120 µM and 2.4.
Regarding `O=C(/C=C/c1ccccc1)N/N=C/c1ccccc1` [Compound 12, (2E)-N'-[(E)-Benzylidene]-3-phenylprop-2-enohydrazide], the “SI (Selectivity Index for leishmanicidal activity)” value in assay [2] turned out to be 3.6. The values for the IC50 in assay [2], in assay [1] (setting [7]) and in assay [3] (setting [8]) were 43.1 µM, greater than 300 µM and 157 µM, respectively.
In the case of `O=C(/C=C/c1ccccc1)N/N=C/c1ccc2c(c1)OCO2` [Compound 6], in assay [2], the “SI (Selectivity Index for leishmanicidal activity)” value was found to be 0.3. For the same compound, the IC50 amounted to 12.5 µM in assay [2], 89.5 µM in assay [1] (setting [7]) and 4.3 µM in assay [3] (setting [8]). Also, in assay [4], the “SI (Selectivity Index for trypanocyde activity)” value is reported as 0.05.
As for `CCCCCCCCCCCCCCCCOP(=O)([O-])OCC[N+](C)(C)C` [MTS, Miltefosine, reference compound], in assay [2], the IC50 stood at 0.348 µM.
For `COc1cc([C@@H]2c3cc4c(cc3[C@H](O)[C@H]3COC(=O)[C@H]23)OCO4)cc(OC)c1OC` [PPT, Podophyllotoxin, reference compound], in assay [3] (Rattus norvegicus, L6, 72 h), the IC50 amounted to 0.006 µM.
In the case of `O=C(/C=C/c1ccccc1)N/N=C/c1ccc(O)cc1` [Compound 13], the “SI (Selectivity Index for leishmanicidal activity)” value in assay [2] is 1.1. Besides, the results for the IC50 in assay [2], in assay [1] (setting [7]) and in assay [3] (setting [8]) were 36.7 µM, 82.5 µM and 40.4 µM, respectively. Besides, the “SI (Selectivity Index for trypanocyde activity)” value in assay [4] came out at 0.5.
In the case of `O=C(/C=C/c1ccccc1)N/N=C/c1ccccc1O` [Compound 15, (2E)-N'-[(E)-2-Hydroxybenzylidene]-3-phenylprop-2-enohydrazide], the “SI (Selectivity Index for leishmanicidal activity)” value in assay [2] was determined as 4.1. Besides, the IC50 in assay [2] is 3.61 µM; in assay [1] (setting [7]), 6.72 µM; in assay [3] (setting [8]), 14.9 µM. Also, the “Cytot. L-6 Cells IC50” value in assay [3] (setting [9]) is on record as “cytotoxic”. For the same compound, the “SI (Selectivity Index for trypanocyde activity)” value in assay [4] is 2.2.
On to `O=C(/C=C/c1ccccc1)N/N=C/c1ccc(Cl)cc1` [Compound 11, (2E)-N'-[(E)-4-Chlorobenzylidene]-3-phenylprop-2-enohydrazide], for which the “SI (Selectivity Index for leishmanicidal activity)” value in assay [2] turned out to be 6.0. The IC50 was 10.8 µM in assay [2], 121 µM in assay [1] (setting [7]) and 65.5 µM in assay [3] (setting [8]). In addition, the “SI (Selectivity Index for trypanocyde activity)” value in assay [4] is 0.5.
For the compound `COc1ccc(/C=N/NC(=O)/C=C/c2ccccc2)cc1` [Compound 10], the IC50 in assay [2] was 13.8 µM; in assay [1] (setting [7]) it was 111 µM; in assay [3] (setting [8]), greater than 321 µM.
For the compound `COc1cc(/C=N/NC(=O)/C=C/c2ccccc2)ccc1O` [Compound 4], the “SI (Selectivity Index for leishmanicidal activity)” value in assay [2] came out at 4.4. Besides, the 50% inhibitory concentration (IC50) in assay [2] amounted to 21.7 µM; in assay [1] (setting [7]), 40.8 µM; in assay [3] (setting [8]), 95.4 µM. Besides, the “SI (Selectivity Index for trypanocyde activity)” value in assay [4] is on record as 2.3.
Turning to `O=C(/C=C/c1ccccc1)N/N=C/c1ccc([N+](=O)[O-])cc1` [Compound 9], the “SI (Selectivity Index for leishmanicidal activity)” value in assay [2] amounted to 24.1. Also, the IC50 in assay [2] is 10.6 µM; in assay [1] (setting [7]), greater than 300 µM; in assay [3] (setting [8]) it was 255 µM.
For the compound `COc1ccc(/C=N/NC(=O)/C=C/c2ccccc2)cc1O` [Compound 16], the “SI (Selectivity Index for leishmanicidal activity)” value in assay [2] is on record as 1.4. The IC50 in assay [2] amounted to 33.3 µM; in assay [1] (setting [7]) it was 80.1 µM; in assay [3] (setting [8]), 48.1 µM. Moreover, the “SI (Selectivity Index for trypanocyde activity)” value in assay [4] came to 0.6.
For `O=C(/C=C/c1ccccc1)NN=Cc1ccc(O)c(O)c1` [Compound 5, (E)-N'-(3,4-dihydroxybenzylidene)cinnamohydrazide], the “SI (Selectivity Index for leishmanicidal activity)” value in assay [2] is listed as 1.2. For the same compound, the values for the IC50 in assay [2], in assay [1] (setting [7]) and in assay [3] (setting [8]) were 11.7 µM, 1.93 µM and 14 µM, respectively. Also, in assay [3] (setting [9]), the “Cytot. L-6 Cells IC50” value is given as “cytotoxic”. Moreover, the “SI (Selectivity Index for trypanocyde activity)” value in assay [4] amounted to 7.3.
